Test results published in PMC3634983 (Clinical Drug Investigation, 2013).
Where two headings read alike, the source gives them in different places.

Columns and labels:
[1] = assay type: in vivo, human; conditions: for detectability in plasma: after single oral doses of dabigatran etexilate; for AUC(0-inf) / Cmax / Tmax: human, plasma, po
[2] = system: healthy subjects; test: Thorough QT study: ECG profiles; assay type: in vivo, human; conditions: for Adjusted mean (SE) ∆ QTcI: time-matched change from baseline between 1.5 and 3 h post-dose, n=40; for ∆∆HR / ∆∆QTcI / ∆∆QT: mean (90 % CI)
[3] = system: healthy subjects; test: Safety and tolerability evaluation; assay type: in vivo, human
[4] = cited from earlier work
[5] = system: activated partial thromboplastin time; conditions: 600 mg dose; achieved at 2–4 h post-dose; pilot study; cited from earlier work
[6] = system: healthy subjects; conditions: after a single dose; cited from earlier work
[7] = following an oral dose without food; cited from earlier work
[8] = system: healthy subjects; assay type: in vivo, human
[9] = system: anaesthetised pigs; conditions: up to 3 mg/kg intravenously; cited from earlier work
[10] = system: isolated guinea pig papillary muscles; conditions: concentrations up to 10 μmol/L; cited from earlier work
[11] = system: hERG-mediated potassium current; conditions: human embryonic kidney cells; cited from earlier work
[12] = cited from earlier work; remark: listed apart in the source
[13] = dabigatran etexilate 150 mg, 1:00 h post-dose
[14] = dabigatran etexilate 150 mg, 1:30 h post-dose
[15] = dabigatran etexilate 150 mg, 2:00 h post-dose
[16] = dabigatran etexilate 150 mg, 3:00 h post-dose
[17] = dabigatran etexilate 150 mg, 6:00 h post-dose
[18] = dabigatran etexilate 150 mg, 12:00 h post-dose
[19] = dabigatran etexilate 150 mg, 24:00 h post-dose
[20] = dabigatran etexilate 150 mg, between 1 and 6 h post-dose
[21] = dabigatran etexilate 600 mg, 1:00 h post-dose
[22] = dabigatran etexilate 600 mg, 1:30 h post-dose
[23] = dabigatran etexilate 600 mg, 2:00 h post-dose
[24] = dabigatran etexilate 600 mg, 3:00 h post-dose
[25] = dabigatran etexilate 600 mg, 6:00 h post-dose
[26] = dabigatran etexilate 600 mg, 12:00 h post-dose
[27] = dabigatran etexilate 600 mg, 24:00 h post-dose
[28] = dabigatran etexilate 600 mg, between 1 and 6 h post-dose
[29] = moxifloxacin 400 mg, 1:00 h post-dose
[30] = moxifloxacin 400 mg, 1:30 h post-dose
[31] = moxifloxacin 400 mg, 2:00 h post-dose
[32] = moxifloxacin 400 mg, 3:00 h post-dose
[33] = moxifloxacin 400 mg, 6:00 h post-dose
[34] = at gMean Cmax of dabigatran etexilate 150 mg dose
[35] = at gMean Cmax of dabigatran etexilate 600 mg dose
[36] = exposure-response analysis for placebo-corrected CfB of HR, post hoc
[37] = exposure-response analysis for placebo-corrected CfB of QTcI, post hoc

CCOC(=O)CCN(C(=O)c1ccc2c(c1)nc(CNc1ccc(C(=N)N)cc1)n2C)c1ccccn1 [BIBR951]
detectability in plasma [1]: only detectable between 0.5 and 3 h post-dosing and then only in very low concentrations

CCCCCCOC(=O)NC(=N)c1ccc(NCc2nc3cc(C(=O)N(CCC(=O)O)c4ccccn4)ccc3n2C)cc1 [BIBR1087]
detectability in plasma [1]: only detectable between 0.5 and 3 h post-dosing and then only in very low concentrations

CCCCCCOC(=O)NC(=N)c1ccc(NCc2nc3cc(C(=O)N(CCC(=O)OCC)c4ccccn4)ccc3n2C)cc1 [Dabigatran etexilate]
upper bound of the two-sided 90 % CI of the largest time-matched mean difference from placebo (QTcI) ([2]; both dose levels (150 mg and 600 mg), 0.5 to 24 h post-dose): 3 to 4 ms | upper limit of 95 % CI, secondary endpoints (QTcI versus placebo) ([2]; both doses (150 mg and 600 mg)): below 4 ms | upper limit of the 95 % CI, primary endpoint (QTcI versus placebo) ([2]; both doses (150 mg and 600 mg)): approximately 1.5 ms | Adjusted mean (SE) ∆ QTcI ([2]; dabigatran etexilate 150 mg single oral dose): −4.9 (1.1) ms | ∆∆HR [2, 13]: 0.7 (−0.5 to 1.8) bpm | ∆∆QTcI [2, 13]: −0.1 (−2.5 to 2.2) ms | ∆∆HR [2, 14]: −0.3 (−1.4 to 0.8) bpm | ∆∆QT [2, 14]: −0.6 (−3.3 to 2.1) ms | ∆∆QTcI [2, 14]: −1.4 (−3.2 to 0.4) ms | ∆∆HR [2, 15]: −0.3 (−1.5 to 0.8) bpm | ∆∆QT [2, 15]: −0.2 (−2.9 to 2.6) ms | ∆∆QTcI [2, 15]: −0.7 (−2.9 to 1.6) ms | ∆∆QT [2, 16]: −1.9 (−4.9 to 1.0) ms | ∆∆QTcI [2, 16]: −1.1 (−3.3 to 1.2) ms | ∆∆QT [2, 17]: −0.5 (−3.8 to 2.7) ms | ∆∆QTcI [2, 17]: −0.4 (−3.0 to 2.2) ms | ∆∆HR [2, 18]: −0.4 (−1.7 to 0.9) bpm | ∆∆QT [2, 18]: 1.3 (−1.8 to 4.5) ms | ∆∆QTcI [2, 18]: 0.9 (−1.7 to 3.5) ms | ∆∆HR [2, 19]: −0.1 (−1.1 to 1.0) bpm | ∆∆QT [2, 19]: −0.2 (−2.8 to 2.5) ms | ∆∆QTcI [2, 19]: −0.1 (−1.9 to 1.7) ms | mean time-matched CfB of QTcI [2, 20]: -5.3 ms | upper bound of the two-sided 90 % CI of placebo-adjusted CfB of QTcI [2, 20]: 1.5 ms | upper bound of the two-sided 90 % CI of placebo-adjusted CfB of QTcI ([2]; dabigatran etexilate 150 mg, between 1.5 and 3 h post-dose): 1.4 ms | Adjusted mean (SE) ∆ QTcI ([2]; dabigatran etexilate 600 mg single oral dose): −5.0 (1.1) ms | ∆∆HR [2, 21]: 0.5 (−0.6 to 1.6) bpm | ∆∆QT [2, 21]: −1.8 (−5.2 to 1.5) ms | ∆∆QTcI [2, 21]: −1.5 (−3.8 to 0.9) ms | ∆∆HR [2, 22]: −0.3 (−1.5 to 0.8) bpm | ∆∆QT [2, 22]: −0.6 (−3.3 to 2.1) ms | ∆∆QTcI [2, 22]: −1.7 (−3.5 to 0.2) ms | ∆∆HR [2, 23]: −1.1 (−2.2 to 0.1) bpm | ∆∆QT [2, 23]: −0.9 (−3.7 to 1.8) ms | ∆∆QTcI [2, 23]: −2.6 (−4.8 to −0.4) ms | ∆∆HR [2, 24]: 1.5 (−0.1 to 2.9) bpm | ∆∆QT [2, 24]: −2.9 (−5.8 to 0.1) ms | ∆∆QTcI [2, 24]: −1.1 (−3.3 to 1.1) ms | ∆∆HR [2, 25]: 0.6 (−0.7 to 1.9) bpm | ∆∆QT [2, 25]: −1.1 (−4.3 to 2.2) ms | ∆∆QTcI [2, 25]: −0.8 (−3.4 to 1.8) ms | ∆∆HR [2, 26]: −0.2 (−1.5 to 1.1) bpm | ∆∆QT [2, 26]: 1.0 (−2.1 to 4.2) ms | ∆∆QTcI [2, 26]: 0.4 (−2.2 to 3.0) ms | ∆∆HR [2, 27]: 1.1 (0.0 to 2.2) bpm | ∆∆QTcI [2, 27]: −1.6 (−3.4 to 0.2) ms | mean time-matched CfB of QTcI [2, 28]: -5.4 ms | upper bound of the two-sided 90 % CI of placebo-adjusted CfB of QTcI [2, 28]: 1.4 ms | upper bound of the two-sided 90 % CI of placebo-adjusted CfB of QTcI ([2]; dabigatran etexilate 600 mg, between 1.5 and 3 h post-dose): 1.3 ms | prolongation of QTcN, QTcF, uncorrected QT and QTcB ([2]; either dabigatran etexilate dose): none of these parameters was prolonged | prolongation of the QT interval ([2]; overall study result): ≤ 5 ms | QT prolongation or arrhythmogenic effects (conclusion) ([2]; therapeutic (150 mg) and supratherapeutic (600 mg) doses): not associated with QT prolongation or arrhythmogenic effects | detectability in plasma [1]: only detectable between 0.5 and 3 h post-dosing and then only in very low concentrations | Mean Cmax with 600 mg relative to 150 mg dose ([1]; dabigatran etexilate 600 mg versus 150 mg): approximately fourfold higher | Cmax after 600 mg relative to steady-state concentration in patients ([1]; versus patients receiving dabigatran etexilate 150 mg once daily): 4 times | Cmax after 600 mg relative to steady-state concentration in patients ([1]; versus patients receiving dabigatran etexilate 150 mg twice daily): 2.6 times | subjects with adverse events within the treatment period ([3]; dabigatran etexilate 150 mg, three subjects of 40): 7.5% | subjects with adverse events within the treatment period ([3]; dabigatran etexilate 600 mg, four subjects of 40): 10% | tolerability ([3]; single oral doses of 150 mg and 600 mg): well tolerated | steady-state concentration ([4]; patients receiving dabigatran etexilate 150 mg once daily): 99.2 ng/mL | steady-state concentration ([4]; patients receiving dabigatran etexilate 150 mg twice daily): 146 ng/mL | increase in activated partial thromboplastin time [5]: two- to threefold increase

COc1c(N2C[C@@H]3CCCN[C@@H]3C2)c(F)cc2c(=O)c(C(=O)O)cn(C3CC3)c12 [Moxifloxacin, moxifloxacin]
∆∆HR [2, 29]: 2.4 (0.9 to 3.8) bpm | ∆∆QT [2, 29]: 8.3 (4.7 to 11.9) ms | ∆∆QTcI [2, 29]: 11.1 (8.4 to 13.8) ms | ∆∆HR [2, 30]: 1.3 (0.1 to 2.5) bpm | ∆∆QT [2, 30]: 11.9 (8.3 to 15.5) ms | ∆∆QTcI [2, 30]: 12.8 (10.2 to 15.6) ms | ∆∆HR [2, 31]: 0.4 (−1.0 to 1.7) bpm | ∆∆QT [2, 31]: 13.6 (10.4 to 16.9) ms | ∆∆QTcI [2, 31]: 14.1 (11.7 to 16.5) ms | ∆∆QTcI ([2]; moxifloxacin 400 mg, 2:00 h post-dose, listed as moxifloxacin): 14.1 ms | ∆∆HR [2, 32]: 2.7 (1.1 to 4.4) bpm | ∆∆QT [2, 32]: 10.3 (6.9 to 13.8) ms | ∆∆QTcI [2, 32]: 14.1 (11.4 to 16.7) ms | ∆∆HR [2, 33]: 1.5 (0.1 to 2.8) bpm | ∆∆QT [2, 33]: 9.2 (6.1 to 12.2) ms | ∆∆QTcI [2, 33]: 10.4 (8.0 to 12.8) ms | Mean (SE) [90 % CI] ∆∆ QTcI ([2]; moxifloxacin 400 mg, placebo-corrected change from baseline between 1.5 and 3 h post-dose): 14.2 ms | Global tolerability (good / satisfactory / not satisfactory / bad) ([3]; investigator-assessed): one subject who responded ‘not satisfactory’ | subjects with adverse events within the treatment period ([3]; moxifloxacin 400 mg, one subject of 40 ('feeling dazed')): 2.5% | QT-interval prolongation [6]: 8 to 14 ms | time of peak plasma concentration [7]: 1 to 4 h

[H]/N=C(/N)c1ccc(NCc2nc3cc(C(=O)N(CCC(=O)O)c4ccccn4)ccc3n2C)cc1 [dabigatran]
Predicted value of ∆∆HR at Cmax (90 % CI) [8, 34]: 0.3 (−0.4 to 1.0) bpm | Predicted value of ∆∆QTcI at Cmax (90 % CI) [8, 34]: 0.4 (−0.9 to 1.7) ms | Predicted value of ∆∆HR at Cmax (90 % CI) [8, 35]: 0.4 (−0.9 to 1.7) bpm | Predicted value of ∆∆QTcI at Cmax (90 % CI) [8, 35]: 0.5 (−1.5 to 2.6) ms | PK-∆∆HR intercept [8, 36]: 0.26 bpm | PK-∆∆HR slope [8, 36]: 0.0005 bpm/[ng/mL] | PK-∆∆QTcI intercept [8, 37]: 0.34 ms | PK-∆∆QTcI slope [8, 37]: ~0 ms/[ng/mL] | PK-∆∆QTcI slope ([8]; exposure-response analysis for placebo-corrected CfB of QTcI, post hoc, listed as Free non-conjugated dabigatran): 0.0006 ms/[ng/mL] | 90 % CI of the predicted value of placebo-corrected CfB of QTcI at gMean Cmax ([8]; total and free dabigatran, each dose (all four analyses)): below 3 ms | AUC(0-inf) ([1]; 150 mg): 540 ng·h/mL | Cmax ([1]; 150 mg): 71.4 ng/mL | Tmax ([1]; 150 mg): 2.03 h | AUC(0-inf) ([1]; 600 mg): 2230 ng·h/mL | Cmax ([1]; 600 mg): 281 ng/mL | Tmax ([1]; 600 mg): 3 h | influence on cardiovascular parameters [9]: no influence on cardiovascular parameters | changes in QT interval [10]: no noteworthy changes in QT interval | effect on hERG-mediated potassium current [11]: did not modify the hERG-mediated potassium current | half-life [12]: 12 to 17 h
